US10106542B2, “Substituted 6,7-dihydropyrazolo[1,5-a]pyrazines as negative allosteric modulators of mGluR2 receptors” (Janssen Pharmaceutica NV, priority 2013, dated 2018)

Target: T1, human mGlu2 receptor (Homo sapiens, UniProt Q14416)
T1 construct: expressed in transfected cells; host or cells: CHO cells (membrane preparation)
Assay: [35S]GTPγS binding assay (mGluR2 negative allosteric modulation)
Format: biochemical
Settings: for IC50: read-out: GTPγS - hmGluR2 anGT pIC50 (converted); for Emax / GTPγS - hmGluR2 anGT Emax: relative maximal effect: maximal % inhibition relative to the control glutamate response; for Emax: read-out: GTPγS - hmGluR2 anGT Emax
Method: 1) [^35S]GTPγS binding assay
The [^35S]GTPγS binding assay is a functional membrane-based assay used to study G-protein coupled receptor (GPCR) function whereby incorporation of a non-hydrolysable form of GTP, [^35S]GTPγS (guanosine 5′-triphosphate, labelled with […] ^35S), is measured. The G-protein a subunit catalyzes the exchange of guanosine 5′-diphosphate (GDP) by guanosine triphosphate (GTP) and on activation of the GPCR by an agonist, [^35S]GTPγS, becomes incorporated and cannot be cleaved to continue the exchange cycle (Harper (1998) Current Protocols in Pharmacology 2.6.1-10, John Wiley & Sons, Inc.). […] Here we describe the use of the [^35S]GTPγS binding assay using membranes from cells transfected with the human mGlu2 receptor and adapted from Schaffhauser et al. (Molecular Pharmacology, 2003, […]) for the detection of the negative allosteric modulation (NAM) properties of the compounds of this invention.
CHO-cells were cultured to pre-confluence and stimulated with 5 mM butyrate for 24 h. Cells were then collected by scraping in PBS and cell suspension was centrifuged (10 min at 4000 RPM in benchtop centrifuge). Supernatant was discarded and pellet gently resuspended in 50 mM Tris-HCl, pH 7.4 by mixing with an Ultra Turrax homogenizer. The suspension was centrifuged at 12,400 RPM (Sorvall F14S-6x250Y) for 10 minutes and the supernatant discarded. The pellet was homogenized in 5 mM Tris-HCl, pH 7.4 using an Ultra Turrax homogenizer and centrifuged again (13,000 RPM, 20 min, 4° C.). The final pellet was resuspended in 50 mM Tris-HCl, pH 7.4 and stored at −80° C. in appropriate aliquots before use. Protein concentration was determined by the Bradford method (Bio-Rad, USA) with bovine serum albumin as standard.
Measurement of mGluR2 negative allosteric modulatory activity of test compounds was performed as follows. Test compounds and glutamate were diluted in assay buffer containing 10 mM HEPES acid, 10 mM HEPES salt, pH 7.4, 100 mM NaCl, 3 mM MgCl2 and 10 μM GDP. Human mGlu2 receptor-containing membranes were thawed on ice and diluted in assay buffer supplemented with 18 μg/ml saponin. […] After addition of [^35S]GTPγS (f.c. 0.1 nM), assay mixtures were shaken briefly and further incubated to allow [^35S]GTPγS incorporation on activation (30 minutes, 30° C.). Final assay mixtures contained 7 μg of membrane protein in 10 mM HEPES acid, 10 mM HEPES salt, pH 7.4, 100 mM NaCl, 3 mM MgCl2, 10 μM GDP and 10 μg/ml saponin. Total reaction volume was 200 μl. Reactions were terminated by rapid filtration through Unifilter-96 GF/B plates (Perkin Elmer, Massachusetts, USA) using a 96-well filtermate universal harvester. Filters were washed 6 times with ice-cold 10 mM NaH2PO4/10 mM Na2HPO4, pH 7.4. Filters were then air-dried, and 30 μl of liquid scintillation cocktail (Microscint-O) was added to each well. Membrane-bound radioactivity was counted in a Topcount.
The concentration-response curves of representative compounds of the present invention were generated using the Lexis software interface (developed at J&J). Data were calculated as % of the control glutamate response, defined as the response that is generated upon addition of an EC80-equivalent concentration of glutamate.

[1] = membranes from CHO cells transfected with human mGlu2 receptor, glutamate 60 μM, pIC50 = −log IC50 (M)

T1 sequence (Q14416 19-872): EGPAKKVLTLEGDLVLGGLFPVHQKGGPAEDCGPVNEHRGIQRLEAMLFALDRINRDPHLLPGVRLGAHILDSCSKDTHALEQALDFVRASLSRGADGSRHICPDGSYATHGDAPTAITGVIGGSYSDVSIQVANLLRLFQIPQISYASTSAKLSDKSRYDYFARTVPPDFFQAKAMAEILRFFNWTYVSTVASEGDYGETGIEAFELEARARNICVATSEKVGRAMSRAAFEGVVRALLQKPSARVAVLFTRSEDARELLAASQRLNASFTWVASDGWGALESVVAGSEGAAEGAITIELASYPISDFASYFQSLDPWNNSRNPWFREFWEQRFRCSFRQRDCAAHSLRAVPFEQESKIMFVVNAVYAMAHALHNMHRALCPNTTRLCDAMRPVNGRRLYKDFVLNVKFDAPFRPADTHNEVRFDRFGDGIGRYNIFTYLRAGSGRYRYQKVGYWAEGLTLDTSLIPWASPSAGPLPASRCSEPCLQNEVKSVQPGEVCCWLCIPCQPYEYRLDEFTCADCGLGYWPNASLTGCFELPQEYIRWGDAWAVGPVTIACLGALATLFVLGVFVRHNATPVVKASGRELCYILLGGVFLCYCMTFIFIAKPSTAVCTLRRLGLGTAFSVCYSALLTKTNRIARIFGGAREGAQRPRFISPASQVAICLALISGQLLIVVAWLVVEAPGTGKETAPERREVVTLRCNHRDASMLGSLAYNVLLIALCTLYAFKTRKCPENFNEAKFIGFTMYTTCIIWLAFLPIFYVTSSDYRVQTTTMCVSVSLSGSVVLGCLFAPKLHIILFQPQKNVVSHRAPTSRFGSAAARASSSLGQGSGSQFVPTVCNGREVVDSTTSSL

Structure (SMILES): CNc1cc(-c2cnn3c2C(=O)N(c2ccc(C(F)(F)F)c(C#N)c2)C[C@@H]3C)ccn1 [compound 179]
- IC50 [1]: 3.63e-08 M
- Emax: 103%

Structure (SMILES): COc1nc(N2C[C@H](C)n3ncc(-c4ccnc(N(C)C)c4)c3C2=O)ccc1C(F)(F)F [compound 250]
- IC50 [1]: 3.98e-09 M
- Emax: 120%

Structure (SMILES): Cc1cc(-c2cnn3c2C(=O)N(c2ccc(F)c(C(F)(F)F)c2)C[C@@H]3C)ccn1 [compound 67, (7S)-5-[4-Fluoro-3-(trifluoromethyl)phenyl]-7-methyl-3-(2-methyl-4-pyridyl)-6,7-dihydropyrazolo[1,5-a]pyrazin-4-one]
- IC50 [1]: 6.31e-08 M
- Emax: 104%

Structure (SMILES): C[C@H]1CN(c2ccc(C(F)(F)F)cc2)C(=O)c2c(-c3cccnc3)cnn21 [compound 32]
- IC50 [1]: 5.62e-07 M
- Emax: 101%

Structure (SMILES): Cc1cc(-c2cnn3c2C(=O)N(c2ccccc2)C[C@@H]3C)ccn1 [compound 86]
- IC50 [1]: 1e-06 M
- Emax: 102%

Structure (SMILES): C[C@H]1CN(c2ccc(C(F)(F)F)cc2)C(=O)c2c(-c3ccnc(N4CCCCC4)c3)cnn21 [compound 107]
- IC50 [1]: 1.78e-08 M
- Emax: 114%

Structure (SMILES): Cc1cc(-c2cnn3c2C(=O)N(c2ccc(C)c(F)c2)C[C@@H]3C)ccn1 [compound 76]
- IC50 [1]: 2.82e-07 M
- Emax: 100%

Structure (SMILES): Cc1cc(-c2cnn3c2C(=O)N(c2ccc(Cl)c(Cl)c2)C[C@@H]3C)ccn1 [6a]
- IC50 [1]: 4.79e-09 M
- GTPγS - hmGluR2 anGT Emax: 112%

Structure (SMILES): Cc1cc(-c2cnn3c2C(=O)N(c2cc(F)cc(OC(F)F)c2)C[C@@H]3C)ccn1 [compound 69]
- IC50 [1]: 5.37e-08 M
- Emax: 103%

Structure (SMILES): Cc1cc(-c2cnn3c2C(=O)N(c2cc(F)cc(Cl)c2)C[C@@H]3C)ccn1 [compound 63]
- IC50 [1]: 3.39e-08 M
- Emax: 105%

Structure (SMILES): Cc1cc(-c2cnn3c2C(=O)N(c2ccc(C4CC4)cc2)C[C@@H]3C)ccn1 [compound 156, (7S)-5-(4-Cyclopropylphenyl)-7-methyl-3-(2-methyl-4-pyridyl)-6,7-dihydropyrazolo[1,5-a]pyrazin-4-one]
- IC50 [1]: 5.62e-08 M
- Emax: 106%

Structure (SMILES): CCc1cc(-c2cnn3c2C(=O)N(c2ccc(Cl)c(Cl)c2)C[C@@H]3C)ccn1 [compound 134]
- IC50 [1]: 3.24e-09 M
- Emax: 104%

Structure (SMILES): C[C@H]1CN(c2ccc(C(F)(F)F)c(OCCF)c2)C(=O)c2c(-c3ccnc(N(C)C)c3)cnn21 [compound 249]
- IC50 [1]: 8.32e-09 M
- Emax: 109%

Structure (SMILES): Cc1cc(-c2cnn3c2C(=O)N(c2ccc(C(C)C(F)(F)F)cc2)C[C@@H]3C)ccn1 (stereo partly shown) [compound 113]
- IC50 [1]: 9.12e-08 M
- Emax: 103%

Structure (SMILES): Cc1cc(-c2cnn3c2C(=O)N(c2ccc(Cl)c(OC(F)F)c2)C[C@@H]3C)ccn1 [compound 163]
- IC50 [1]: 1.1e-08 M
- Emax: 103%

Structure (SMILES): C[C@H]1CN(c2ccc(C(F)(F)F)c(Cl)c2)C(=O)c2c(-c3ccnc(N4CC(F)C4)c3)cnn21 [compound 92]
- IC50 [1]: 2.95e-09 M
- Emax: 107%

Structure (SMILES): Cc1cc(-c2cnn3c2C(=O)N(c2ccc(Cl)c(Cl)c2)CC3CF)ccn1 (single isomer, unassigned) [compound 115]
- IC50 [1]: 7.08e-09 M
- Emax: 108%

Structure (SMILES): CCOc1cc(-c2cnn3c2C(=O)N(c2ccc(Cl)c(Cl)c2)C[C@@H]3C)ccn1 [compound 133]
- IC50 [1]: 8.32e-09 M
- Emax: 104%

Structure (SMILES): COCC1CN(c2ccc(Cl)c(Cl)c2)C(=O)c2c(-c3ccnc(C)c3)cnn21 (single isomer, unassigned) [compound 118]
- IC50 [1]: 1.95e-08 M
- Emax: 105%

Structure (SMILES): COCC1CN(c2ccc(C(F)(F)F)cc2)C(=O)c2c(-c3ccnc(C)c3)cnn21 (single isomer, unassigned) [compound 121]
- IC50 [1]: 1.62e-05 M
- GTPγS - hmGluR2 anGT Emax: 75%

Structure (SMILES): Cc1cc(-c2cnn3c2C(=O)N(c2ccc(Cl)c(Cl)n2)C[C@@H]3C)ccn1 [compound 202]
- IC50 [1]: 1.02e-08 M
- Emax: 103%

Structure (SMILES): CC(C)Oc1cc(-c2cnn3c2C(=O)N(c2ccc(Cl)c(Cl)c2)C[C@@H]3C)ccn1 [compound 137]
- IC50 [1]: 1.82e-08 M
- Emax: 107%

Structure (SMILES): Cc1cc(-c2cnn3c2C(=O)N(c2ccc(Br)cc2)C[C@@H]3C)ccn1 [compound 139]
- IC50 [1]: 3.63e-08 M
- Emax: 106%

Structure (SMILES): Cc1cc(-c2cnn3c2C(=O)N(c2ccc(Cl)c(Cl)c2)C[C@@H]3C)cc[n+]1[O-] [compound 170, (7S)-5-(3,4-dichlorophenyl)-7-methyl-3-(2-methyl-1-oxido-pyridin-1-ium-4-yl)-6,7-dihydropyrazolo[1,5-a]pyrazin-4-one]
- IC50 [1]: 7.24e-08 M
- Emax: 107%

Structure (SMILES): Cc1cc(-c2cnn3c2C(=O)N(c2ccc(F)cc2)C[C@@H]3C)ccn1 [compound 28]
- IC50 [1]: 2.4e-07 M
- Emax: 105%

Structure (SMILES): CCCc1ccc(N2C[C@H](C)n3ncc(-c4ccnc(C)c4)c3C2=O)cc1 [compound 66]
- IC50 [1]: 4.07e-08 M
- Emax: 107%

Structure (SMILES): CCC1CN(c2ccc(C(F)(F)F)cc2)C(=O)c2c(-c3ccnc(C)c3)cnn21 (stereo not shown) [compound 70]
- GTPγS - hmGluR2 anGT pIC50 [1]: 7.1
- Emax: 106%

Structure (SMILES): C[C@H]1CN(c2ccc(C(F)(F)F)c(Cl)c2)C(=O)c2c(-c3ccnc(CF)c3)cnn21 [compound 265]
- IC50 [1]: 5.5e-09 M
- Emax: 111%

Structure (SMILES): Cc1cc(-c2cnn3c2C(=O)N(c2cccc(OC(F)(F)F)c2)C[C@@H]3C)ccn1 [compound 58]
- IC50 [1]: 2.19e-08 M
- Emax: 107%

Structure (SMILES): CC(C)Oc1cc(-c2cnn3c2C(=O)N(c2ccc(C(F)(F)F)cc2)C[C@@H]3C)ccn1 [compound 138]
- IC50 [1]: 6.76e-08 M
- Emax: 105%

Structure (SMILES): COc1cc(Cl)ccc1N1C[C@H](C)n2ncc(-c3ccnc(C)c3)c2C1=O [compound 161]
- IC50 [1]: 1.55e-05 M
- Emax: 76%

Structure (SMILES): C[C@H]1CN(c2ccc(Cl)c(Cl)c2)C(=O)c2c(-c3ccnc(N4CCC4)c3)cnn21 [compound 97]
- IC50 [1]: 1.66e-09 M
- Emax: 104%

Structure (SMILES): Cc1cc(-c2cnn3c2C(=O)N(c2ccc(Cl)c(C)n2)C[C@@H]3C)ccn1 [compound 196]
- IC50 [1]: 5.01e-08 M
- Emax: 107%

Structure (SMILES): Cc1cc(-c2cnn3c2C(=O)N(c2ccc(C#N)c(F)c2)C[C@@H]3C)ccn1 [compound 75]
- IC50 [1]: 2.75e-07 M
- Emax: 100%

Structure (SMILES): CCOc1ccc(C(F)(F)F)c(N2C[C@H](C)n3ncc(-c4ccnc(C)c4)c3C2=O)n1 [compound 199]
- IC50 [1]: 2.57e-05 M
- Emax: 67%

Structure (SMILES): C[C@H]1CN(c2ccc(C(F)(F)F)cc2)C(=O)c2c(-c3ccnc(C4CC4)c3)cnn21 [compound 173]
- IC50 [1]: 4.37e-09 M
- Emax: 106%

Structure (SMILES): C[C@H]1CN(c2ccc(Cl)c(Cl)c2)C(=O)c2c(-c3ccnc(CF)c3)cnn21 [compound 117]
- IC50 [1]: 7.59e-09 M
- Emax: 109%

Structure (SMILES): C[C@H]1CN(c2ccc(C(F)(F)F)c(Cl)c2)C(=O)c2c(-c3ccnc(N4CCC4)c3)cnn21 [compound 96]
- IC50 [1]: 1.23e-09 M
- Emax: 108%

Structure (SMILES): Cc1cc(-c2cnn3c2C(=O)N(c2ccc(F)c(F)c2)C[C@@H]3C)ccn1 [compound 25]
- IC50 [1]: 1.45e-07 M
- Emax: 103%

Structure (SMILES): COc1ccc(N2C[C@H](C)n3ncc(-c4ccnc(C)c4)c3C2=O)cc1Cl [compound 20]
- IC50 [1]: 8.71e-08 M
- Emax: 104%

Structure (SMILES): Cc1cc(-c2cnn3c2C(=O)N(c2ccc(C(F)(F)F)cn2)C[C@@H]3C)cc(C)n1 [compound 194]
- IC50 [1]: 1.38e-07 M
- Emax: 107%

Structure (SMILES): Cc1cc(-c2cnn3c2C(=O)N(c2ccc(Cl)cc2Cl)CC3)ccn1 [compound 244]
- IC50 [1]: 8.71e-06 M
- Emax: 80%

Structure (SMILES): Cc1cc(-c2cnn3c2C(=O)N(c2ccc(C(F)(F)F)cc2)CC3C(F)(F)F)ccn1 (stereo not shown) [compound 238, 3-(2-Methyl-4-pyridyl)-7-(trifluoromethyl)-5-[4-(trifluoromethyl)phenyl]-6,7-dihydropyrazolo[1,5-a]pyrazin-4-one]
- IC50 [1]: 2.14e-06 M
- Emax: 103%

Structure (SMILES): CCN(C)c1cc(-c2cnn3c2C(=O)N(c2ccc(C(F)(F)F)c(Cl)c2)C[C@@H]3C)ccn1 [compound 254]
- IC50 [1]: 1.7e-09 M
- Emax: 109%
